Tests used:
Assay type in all cases: cell-based
[1] = test system: TMPRSS2 expression in LNCaP cells; assay: AR activity assay: TMPRSS2 gene expression in LNCaP cells (realtime PCR); conditions: 1 and 10 μM, in the presence of 0.1 nM R1881
Protocol: (§1) LNCaP (ATCC) or LNCaP-EnzR (MR49F was received from Dr. Martin Gleave, University of British Columbia) cells were plated in 96 well plates at 15,000-20,000 cells/well in RPMI+1% csFBS without phenol red. Cells were treated 2 days after plating and harvested 18 hours after treatment (for TMPRSS2) or 24 hours after treatment (for PSA and FKBP5). RNA was isolated (cells to ct kit, Life Technologies), cDNA synthesized (cells to ct kit), and expression of TMPRSS2, PSA or FKBP5 and expression of GAPDH were measured using realtime PCR primers and probes (TaqMan probes, Life Technologies) by realtime PCR (ABI 7900, Life Technologies). Relative expression was calculated using ddct method.

[2] = test system: TMPRSS2 expression in LNCaP-EnzR cells; assay: AR activity assay: TMPRSS2 gene expression in LNCaP-EnzR (MR49F) cells (realtime PCR); conditions: enzalutamide resistant LNCaP-EnzR cells, 1 and 10 μM
Protocol: as §1

Human AR [3] = molecular target: T1, Human AR (Homo sapiens (Human), UniProt P10275); assay: AR agonist assay (GRE-LUC luciferase, transfected HEK-293 cells, test article alone); conditions: HEK-293 transfected with human AR, read-out: AR Agonist IC50
Protocol: (§2) Human AR cDNA cloned into pCMV vector, GRE-LUC, and CMV-renilla-LUC were used to transfect cells. HEK-293 cells (ATCC) were plated at 120,000 cells per well of a 24 well plate in DME+5% csFBS (Fisher Scientific, Waltham, Mass.). The cells were transfected using Lipofectamine (Life Technologies, Carlsbad, Calif.) with 0.25 μg GRE-LUC, 0.010 μg CMV-LUC (renilla luciferase) and 25 ng of the AR. […] Luciferase assay was performed 48 hrs after transfection. Firefly luciferase assay values were normalized to renilla luciferase values and were graphed using graphpad prism software (La Jolla, Calif.). […] The IC50 or EC50 values were determined using non-linear regression and […] logistics fitting.

Human AR [4] = molecular target: T1, Human AR; assay: AR antagonist assay (GRE-LUC luciferase, transfected HEK-293 cells, with 0.1 nM R1881); conditions: with 0.1 nM R1881
Protocol: as §2

GFP-AR = GFP-AR (Homo sapiens (Human), UniProt P10275); conditions: COS cells, GFP-AR, 30 min pre-treatment, then R1881 for four hours
Protocol: COS cells plated in chamber slides in DME+5% csFBS without phenol red were transfected with […] GFP-AR using lipofectamine reagent.

GR = GR (Homo sapiens (Human), UniProt P04150); assay: GR antagonist assay (GRE-LUC luciferase, transfected COS-7 cells, with 0.1 nM dexamethasone); conditions: 10 μM, in the presence of 0.1 nM dexamethasone
Protocol: COS-7 cells (ATCC, Manassas, Va.) were plated in 24 well plates in DME+5% csFBS without phenol red at 70,000 cells/well. Once the cells attached to the plates (typically after overnight incubation after plating), they were transfected in OPTIMEM medium (Life Technologies) using lipofectamine reagent (Life Technologies) with 0.25 μg GRE-LUC, 25 ng pCR3.1 GR, and 10 ng CMV-renilla LUC per well. Twenty-four hours after transfection, the cells were fed with DME+5% csFBS without phenol red (Fisher Scientific, Waltham, Mass.) and treated with the test compounds (1 pM to 10 μM dose range) in the presence of 0.1 nM dexamethasone (Sigma, St. Louis, Mo.). Sixteen to twenty-four hours after treatment, a luciferase assay was performed using the Dual Luciferase assay kit (Promega, Madison, Wis.). Firefly luciferase values were normalized to Renilla luciferase numbers.

LNCaP cells = assay: Cell proliferation assay, LNCaP (CellTiter-Glo); conditions: 6 days
Protocol: (§3) LNCaP-abl (3,000 cells/well, received from Dr. Myles Brown, Dana Farber Cancer Institute), 22RV1 (1,000 cells/well), LNCaP (5,000 cells/well), or COS (3,000 cells/well) cells were plated in 96 well plates in 50 μl RPMI+10% FBS (Fisher Scientific, Waltham, Mass.). LNCaP, COS, and 22RV1 cells were obtained from ATCC. Cells were treated in RPMI+10% FBS with test articles, ranging from 1 nM to 10 μM. Three days later, viable cells (LNCaP-abl, 22RV1, and COS) were measured by CellTiter-Glo assay (Promega, Madison, Wis.). For LNCaP cells, medium containing test article was changed after 3 days of treatment, and after an additional 3 days of culture, viable cells were measured by CellTiter-Glo assay.
(§4) The LNCaP cell line is androgen responsive with AR and PSA expression. It contains a T877A mutation in the AR. The 22RV1 cell line is positive for AR and PSA with additional AR splice variants and is insensitive to androgen for cell proliferation. The LNCaP-abl cell line expresses both AR and GR but is insensitive to androgen for cell proliferation. COS-7 is used as an AR negative cell line in this experiment.

LNCaP-abl cells = assay: Cell proliferation assay, LNCaP-abl (CellTiter-Glo); conditions: 72 h, 3 days; for activity at 3 µM: read-out: cell proliferation, % of vehicle at 3 μM; for activity at 10 µM: read-out: cell proliferation, % of vehicle at 10 μM
Protocol: as §3, §4

22RV1 cells = assay: Cell proliferation assay, 22RV1 (CellTiter-Glo); conditions: 3 days; for cell proliferation, % of vehicle at 3 μM: 22RV1, 3 μM; for cell proliferation, % of vehicle at 10 μM: 22RV1, 10 μM
Protocol: as §3, §4

COS-7 cells = assay: Cell proliferation assay, COS-7 (CellTiter-Glo); conditions: 3 days; for cell proliferation, % of vehicle at 3 μM: COS-7, 3 μM; for cell proliferation, % of vehicle at 10 μM: COS-7, 10 μM
Protocol: as §3, §4

MR49F cells = assay: Cell proliferation assay, MR49F enzalutamide-resistant LNCaP cells (SRB); conditions: six days
Protocol: The outer wells of the 96 well plates were not used for treatment due to potential evaporation. Cells were treated with selected doses of the compounds with the final concentration of DMSO kept at 0.1%. The cells were re-treated three days later. At the end of six days of treatment, the cells were fixed using 40% w/v trichloroacetic acid and a […] (SRB) assay was performed to determine the cell viability.

PSA gene expression = assay: AR activity assay: PSA gene expression (realtime PCR); conditions: 1 and 10 μM
Protocol: as §1

FKBP5 gene expression = assay: AR activity assay: FKBP5 gene expression (realtime PCR); conditions: 1 and 10 μM
Protocol: as §1

T1 sequence (P10275 whole entry): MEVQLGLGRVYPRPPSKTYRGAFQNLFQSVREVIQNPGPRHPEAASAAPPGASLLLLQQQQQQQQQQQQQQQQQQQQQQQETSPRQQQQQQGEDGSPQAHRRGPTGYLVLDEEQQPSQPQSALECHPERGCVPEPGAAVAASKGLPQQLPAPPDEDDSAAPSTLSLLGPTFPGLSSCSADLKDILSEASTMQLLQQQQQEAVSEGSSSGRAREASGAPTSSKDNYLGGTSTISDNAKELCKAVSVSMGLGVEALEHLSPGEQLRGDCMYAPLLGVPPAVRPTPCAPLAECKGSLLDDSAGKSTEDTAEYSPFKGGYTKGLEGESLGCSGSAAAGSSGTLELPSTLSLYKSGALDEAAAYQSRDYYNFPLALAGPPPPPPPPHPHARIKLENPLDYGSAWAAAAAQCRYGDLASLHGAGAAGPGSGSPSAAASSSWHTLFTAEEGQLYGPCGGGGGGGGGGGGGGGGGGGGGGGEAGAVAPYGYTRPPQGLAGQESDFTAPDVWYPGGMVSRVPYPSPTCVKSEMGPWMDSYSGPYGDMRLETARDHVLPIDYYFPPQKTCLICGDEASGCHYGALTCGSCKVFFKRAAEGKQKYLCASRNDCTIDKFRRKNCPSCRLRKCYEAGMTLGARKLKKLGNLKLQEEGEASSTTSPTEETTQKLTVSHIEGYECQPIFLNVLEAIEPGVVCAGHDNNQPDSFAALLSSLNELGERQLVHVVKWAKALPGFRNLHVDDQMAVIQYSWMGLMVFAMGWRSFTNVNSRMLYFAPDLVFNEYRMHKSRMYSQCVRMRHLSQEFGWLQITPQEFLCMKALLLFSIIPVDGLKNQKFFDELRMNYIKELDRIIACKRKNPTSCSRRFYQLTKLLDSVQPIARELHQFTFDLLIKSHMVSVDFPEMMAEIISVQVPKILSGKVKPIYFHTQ
Sequence of GR (P04150 whole entry): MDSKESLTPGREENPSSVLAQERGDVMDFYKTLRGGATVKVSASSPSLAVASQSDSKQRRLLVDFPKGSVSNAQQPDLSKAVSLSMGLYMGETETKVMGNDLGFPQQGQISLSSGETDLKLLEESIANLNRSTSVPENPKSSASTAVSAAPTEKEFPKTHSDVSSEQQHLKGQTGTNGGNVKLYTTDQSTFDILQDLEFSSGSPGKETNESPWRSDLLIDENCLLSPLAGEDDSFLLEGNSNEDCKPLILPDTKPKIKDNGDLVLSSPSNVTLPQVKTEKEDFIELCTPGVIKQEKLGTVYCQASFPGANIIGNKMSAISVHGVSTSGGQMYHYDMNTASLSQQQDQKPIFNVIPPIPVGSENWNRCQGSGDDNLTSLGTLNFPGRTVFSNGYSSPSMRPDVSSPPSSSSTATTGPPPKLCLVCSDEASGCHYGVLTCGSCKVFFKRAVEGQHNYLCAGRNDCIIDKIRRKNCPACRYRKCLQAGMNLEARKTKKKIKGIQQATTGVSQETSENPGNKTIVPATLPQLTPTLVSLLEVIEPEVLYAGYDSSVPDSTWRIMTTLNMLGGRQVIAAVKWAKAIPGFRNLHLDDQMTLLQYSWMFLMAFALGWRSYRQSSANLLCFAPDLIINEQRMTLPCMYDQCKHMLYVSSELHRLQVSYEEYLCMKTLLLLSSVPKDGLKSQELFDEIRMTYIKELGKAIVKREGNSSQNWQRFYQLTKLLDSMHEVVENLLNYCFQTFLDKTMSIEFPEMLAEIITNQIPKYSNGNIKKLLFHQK
Sequence of GFP-AR (P10275 whole entry, looked up): as the sequence (P10275 whole entry) above

SMILES	TMPRSS2 expression [1]	TMPRSS2 expression [2]	EC50 (Human AR [3])	IC50 (Human AR [4])	AR localization (cytoplasmic or nuclear) (GFP-AR)	GR antagonist assay, % of vehicle (GR)	cell proliferation, % of vehicle at 3 μM (LNCaP cells)	cell proliferation, % of vehicle at 10 μM (LNCaP cells)	activity at 3 µM (LNCaP-abl cells)	activity at 10 µM (LNCaP-abl cells)	cell proliferation, % of vehicle at 3 μM (22RV1 cells)	cell proliferation, % of vehicle at 10 μM (22RV1 cells)	cell proliferation, % of vehicle at 3 μM (COS-7 cells)	cell proliferation, % of vehicle at 10 μM (COS-7 cells)	cell proliferation, % of vehicle at 3 μM (MR49F cells; 3 μM)	cell proliferation, % of vehicle at 10 μM (MR49F cells; 10 μM)	PSA gene expression (PSA gene expression)	FKBP5 gene expression (FKBP5 gene expression)
CNC(=O)c1ccc(N2C(=S)N(c3ccc(C#N)c(C(F)(F)F)c3)C(=O)C2(C)C)cc1F [Enzalutamide, enzalutamide]	inhibitory effects	failed to reduce TMPRSS2 expression																
Cc1ncsc1C(=O)NCc1ccc(N2C(=S)N(c3ccc(C#N)c(C(F)(F)F)c3)C(=O)C2(C)C)cc1F [Compound 9]			> 10000 nM	49.1 nM	nuclear	41%	55%	21%	89%	27%	77%	41%	92%	99%	53%	29%		
CC1(C)C(=O)N(c2ccc(C#N)c(C(F)(F)F)c2)C(=S)N1c1ccc(CNC(=O)c2ccccn2)c(F)c1 [Compound 8]			> 10000 nM	47.2 nM	nuclear	52%	63%	19%	83%	62%	87%	90%	99%	91%			significant inhibition	significant inhibition
